Data set [1] is described as follows: Selectivity index, ratio of IC50 for cytotoxicity against human F180 cells to IC50 for cytotoxicity against human SK-MEL-28 cells.
The test system of data set [2] is MOLT-4. The data set can be described thus: Cytotoxicity against human MOLT-4 cells assessed as cell growth inhibition. Format: functional, cell-based.
Data set [3] has as its system K562. The data set is described as follows: Induction of apoptosis in human K562 cells assessed as fold increase in caspase 3/7 activity at 0.58 uM (reference value: 1.03 +/- 0.02). It counts as functional.
Data set [4] addresses T1, Carbonic anhydrase 2 (Homo sapiens, UniProt P00918). The data set can be described thus: Inhibition of Carbonic anhydrase 2 (unknown origin) at 100 uM using p-nitrophenyl acetate as substrate preincubated for 10 mins followed by substrate addition and measured after 30 mins by microplate reader method relative to control. Conditions: time 40.0 min.
Data set [5] has as its system SK-MEL-5. The data set is described as follows: Cytotoxicity against human SK-MEL-5 cells assessed as cell growth inhibition. It counts as functional, cell-based.
The target of data set [6] is T2, Carbonic anhydrase 12 (Homo sapiens, UniProt O43570). The data set is described as follows: Inhibition of Carbonic anhydrase 12 (unknown origin) using p-nitrophenyl acetate as substrate preincubated for 10 mins followed by substrate addition and measured after 30 mins by microplate reader method.
The subject of data set [7] is K562. The data set is described as follows: Induction of necrosis in human K562 cells assessed as LDH release at 1.16 uM (reference value: 0.20+/- 0.02%). It counts as functional. For orientation: LDH in the medium is a marker of cell lysis.
Data set [8] deals with OVCAR-3. The data set can be described thus: Cytotoxicity against human OVCAR-3 cells assessed as cell growth inhibition. Format: functional, cell-based.
The nature of data set [9]: Selectivity index, ratio of IC50 for cytotoxicity against human F180 cells to IC50 for cytotoxicity against human UACC-62 cells.
A short description of data set [10]: Selectivity index, ratio of IC50 for cytotoxicity against human hTERT-HME1 cells to IC50 for cytotoxicity against human MCF7 cells. It counts as toxicity, cell-based. Conditions: hTERT-HME1 cells and MCF7 cells, read-out: Ratio IC50.
Data set [11] concerns CCRF-CEM. The data set can be described thus: Cytotoxicity against human CCRF-CEM cells assessed as cell growth inhibition. Format: functional, cell-based.
The subject of data set [12] is K562. The data set is described as follows: Induction of necrosis in human K562 cells assessed as LDH release at 0.58 uM (reference value: 0.20+/- 0.02%). Format: functional.
The subject of data set [13] is K562. The data set can be described thus: Induction of apoptosis in human K562 cells assessed as fold increase in caspase 3/7 activity at 1.16 uM (reference value: 1.03 +/- 0.02). Format: functional.
Data set [14] has as its target T1, Carbonic anhydrase 2. The data set is described as follows: Inhibition of Carbonic anhydrase 2 (unknown origin) using p-nitrophenyl acetate as substrate preincubated for 10 mins followed by substrate addition and measured after 30 mins by microplate reader method.
Data set [15] is described as follows: Selectivity index, ratio of IC50 for cytotoxicity against human F180 cells to IC50 for cytotoxicity against human SK-MEL-5 cells.
Data set [16] deals with Panel NCI-60 (60 carcinoma cell lines). The data set can be described thus: Cytotoxicity against human Panel NCI-60 (60 carcinoma cell lines) assessed as mean growth inhibition. Format: functional.
The nature of data set [17]: Selectivity index, ratio of IC50 for cytotoxicity against human F180 cells to IC50 for cytotoxicity against human UACC-257 cells.
Data set [18] has as its system K562. The data set is described as follows: Induction of apoptosis in human K562 cells assessed as fold increase in caspase 3/7 activity at 0.32 uM (reference value: 1.03 +/- 0.02). It counts as functional.
In data set [19] the test system is K562. The data set is described as follows: Induction of apoptosis in human K562 cells assessed as fold increase in caspase 3/7 activity at 0.64 uM (reference value: 1.03 +/- 0.02). It counts as functional.
Data set [20] concerns CAKI-1. The data set can be described thus: Cytotoxicity against human CAKI-1 cells assessed as cell growth inhibition. Format: functional, cell-based.
Data set [21] addresses T2, Carbonic anhydrase 12. The data set can be described thus: Inhibition of Carbonic anhydrase 12 (unknown origin) at 100 uM using p-nitrophenyl acetate as substrate preincubated for 10 mins followed by substrate addition and measured after 30 mins by microplate reader method relative to control. The following applies: time 40.0 min.
Data set [22] deals with K562. The data set can be described thus: Induction of necrosis in human K562 cells assessed as LDH release at 0.64 uM (reference value: 0.20+/- 0.02%). It counts as functional.
The subject of data set [23] is K562. The data set is described as follows: Induction of necrosis in human K562 cells assessed as LDH release at 0.32 uM (reference value: 0.20+/- 0.02%). Format: functional.
Data set [24] can be described thus: Selectivity index, ratio of IC50 for cytotoxicity against human hTERT-HME1 cells to IC50 for cytotoxicity against human Hs-578T cells.

The structures appear in SMILES notation.

What is called IC50 is the concentration that inhibits the measured activity by half. Usually inhibition stands for the change of the read-out against control, counted positive when it falls. High values mean a strong effect, low ones a weak effect.

T2 sequence (O43570 whole entry): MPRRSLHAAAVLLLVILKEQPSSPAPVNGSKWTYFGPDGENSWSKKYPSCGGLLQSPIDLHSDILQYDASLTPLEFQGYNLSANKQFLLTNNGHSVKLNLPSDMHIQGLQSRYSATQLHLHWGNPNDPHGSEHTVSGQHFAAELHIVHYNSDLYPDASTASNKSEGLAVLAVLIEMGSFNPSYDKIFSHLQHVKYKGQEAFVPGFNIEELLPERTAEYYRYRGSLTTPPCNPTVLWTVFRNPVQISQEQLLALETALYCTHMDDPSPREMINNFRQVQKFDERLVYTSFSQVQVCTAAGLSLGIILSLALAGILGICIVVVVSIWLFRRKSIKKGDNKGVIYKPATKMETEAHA

Take `O=C(Nc1ccc(OS(=O)(=O)c2ccc(F)cc2)cc1)C12CC3CC(CC(C3)C1)C2`: the entries for the “Ratio IC50” value in data set [1] and in data set [9] were 1.7 and 15.9, respectively. Also, the half-inhibitory concentration (IC50) in data set [2] turned out to be 5.05 µM; in [5], 3.61 µM; in data set [6], 0.68 µM; in data set [8] it was 6.05 µM; in data set [11] it was 3.73 µM. The “fold change (FC)” value in data set [3] stood at 1.89; in data set [13], 2.72. In data set [4], this molecule gave an inhibition of 39.6%. Also, the Activity came to 3.4% in data set [7] and 1.8% in data set [12]. In data set [10], the selectivity ratio was found to be 84.7.
For the molecule `O=C(Nc1ccc(OS(=O)(=O)c2ccccc2)cc1)C12CC3CC(CC(C3)C1)C2`, the 50% inhibitory concentration (IC50) in data set [14] amounted to 0.88 µM; in data set [5], 3.12 µM; in data set [20], 7.08 µM. The entries for the “Ratio IC50” value in [15], in data set [17] and in data set [24] were 3.12, 3.7 and 6.8, respectively. In addition, the “inhibition (INH)” value in data set [16] is listed as 44.5%. Further, the “fold change (FC)” value in data set [18] amounted to 2.05; in data set [19], 3.7. For the same molecule, in [21], the inhibition came to 18.1%. Moreover, the Activity in data set [22] was 2.3%; in [23] it was 0.5%.
